Experimental data as given in paper PMC11505670, “Four newly synthesized enones induce mitochondrial-mediated apoptosis and G2/M cell cycle arrest in colorectal and cervical cancer cells” (RSC Advances, 2024).

Columns and labels:
Format in all cases: cell-based, human
HeLa cells [1] = experiment: MTT cytotoxicity assay, HeLa; conditions: for IC50: MTT; for Selectivity index (SI): IC50 healthy cells (MRC-5)/IC50 tumor cells; for Cytotoxicity range: concentration range 1–100 μM
Experimental: (§1) To examine and compare the antiproliferative activities of four enones, the cytotoxicity of the compounds was assessed by the 3-(4,5-dimethylthiazol-2-yl)-2,5-diphenyltetrazolium bromide (MTT) assay[9] in, colon cancer cells (HCT-116), cervical cancer cell line (HeLa) and human fibroblast lung cell line (MRC-5) that was used as a healthy control cell line. After trypsinization, seeded (5 × 10^3 cells per well in 96-well plates) cells were treated with different concentrations of the investigated enones (1, 3, 10, 30, and 100 μM) during 48 and 72 h period incubation period +37 °C and 5–6.5% CO2. After the incubation period, the medium was removed and MTT solution (5 mg ml^−1) was added to the wells.
(§2) After a 3 hour incubation with the MTT solution, the resulting formazan crystals were dissolved in DMSO (67-68-5, Merck). Absorbance was subsequently measured at 595 nm using a microplate reader (Zenith 3100, Anthos Labtech Instruments). The percentage of cytotoxic cells was determined using the formula: cytotoxicity (%) = (1 − (exp. group (ABS))/(control group (ABS)) × 100). IC50 values were calculated using GraphPad Prism 10 software. The selectivity index (SI) was determined using the formula: SI?IC50 value for healthy cells/IC50 value for tumor cells.[9]

HCT-116 cells [2] = experiment: MTT cytotoxicity assay, HCT-116; conditions: for IC50: MTT; for percentage of cytotoxic HCT-116 cells compared to HeLa cells (fold) / percentage of cytotoxic HCT-116 cells compared to control MRC-5 cells (fold): 48 h, over the applied doses; for Cytotoxicity range: concentration range 1–100 μM; for Selectivity index (SI): IC50 healthy cells (MRC-5)/IC50 tumor cells
Experimental: as §1, §2

MRC-5 cells = experiment: MTT cytotoxicity assay, MRC-5 healthy control cells
Experimental: as §1, §2

HeLa cells [3] = experiment: Annexin V-FITC/7-AAD apoptosis flow cytometry, HeLa; conditions: IC50 concentration, 48 h
Experimental: (§3) The type of cell death was assessed using flow cytometry using FITC Annexin V Apoptosis Detection Kit with 7-AAD (640922, Bio legend).[8] […] After treatment, cells were harvested, washed with PBS (resuspended in 100 μl of ice-cold 1X binding buffer), stained (20 μl of 7-AAD and 10 μl of Annexin V-FITC), and incubated in the dark for 15 min at +4 °C. After incubation, 400 μl of binding buffer was added and the samples were analyzed using flow cytometer Cytomics FC500 (Beckman Coulter, USA). Data analysis was performed using FlowJo Software and presented with histogram and dot plots.

HCT-116 cells [4] = experiment: Annexin V-FITC/7-AAD apoptosis flow cytometry, HCT-116; conditions: IC50 concentration, 48 h
Experimental: as §3

[5] = tested on: Bax and Bcl-2 in HCT-116 cells; experiment: Flow cytometric analysis of Bax and Bcl-2 expression, HCT-116; conditions: HCT-116, IC50 concentration, 48 h, from MFI
Experimental: (§4) Cells were washed with PBS, fixed, permeabilized using Fixation and Permeabilization Kit (eBioscience), and stained separately for Bcl-2, Bax, and cleaved-caspase-3.[8,9] Permeabilized cells were incubated with primary antibodies: mouse anti-human-Bcl-2 (DC21, sc-783, Santa Cruz Biotech. Inc.), mouse anti-human Bax (N20, sc-493, Santa Cruz Biotech. Inc.), and anti-cleaved caspase-3 (Cell signaling Technology 9661). Following antibody incubation, cells were washed and incubated with secondary Alexa 488-conjugated antibodies (ab185015, Abcam, United Kingdom) for 30 minutes. After an additional wash with PBS, flow cytometry analysis was performed.
(§5) Data were analyzed using FlowJo Software. The expression of Bcl-2 and Bax proteins was quantified as mean fluorescence intensity (MFI). The results were presented with bar graphs. Bax/Bcl-2 index was calculated using the formula […]. The percentage of cells expressing active caspase-3 (MFI) was presented in histograms.

[6] = tested on: Bax and Bcl-2 in HeLa cells; experiment: Flow cytometric analysis of Bax and Bcl-2 expression, HeLa; conditions: IC50 concentration, 48 h; for Bax/Bcl-2 ratio: from MFI; for Bcl-2 protein expression vs control cells: p < 0.05
Experimental: as §4, §5

[7] = tested on: active caspase-3 in HCT-116 cells; experiment: Flow cytometric analysis of active caspase-3, HCT-116; conditions: IC50 concentration, 48 h, vs control
Experimental: as §4, §5

[8] = tested on: active caspase-3 in HeLa cells; experiment: Flow cytometric analysis of active caspase-3, HeLa; conditions: IC50 concentration, 48 h, vs control
Experimental: as §4, §5

[9] = tested on: mitochondrial membrane potential (ΔΨm) in HCT-116 cells; experiment: Mitochondrial membrane potential (ΔΨm) JC-10 analysis, HCT-116; conditions: IC50 concentration, 48 h
Experimental: (§6) Changes in the ΔΨm caused by 48 hours of enones treatment, were assessed using JC-10 dye.[10]. (Enzo Life Sciences, Farmingdale, NY, USA).
(§7) In healthy cells, JC-10 dye accumulates in the mitochondria as red fluorescent aggregates. However, upon cell damage, changes in ΔΨm occur and result in dislocation of JC-10 from the mitochondria to the cytosol and the monomerization of aggregates, shifting fluorescence from red to green. Cells were cultured in 24-well plate (3 × 10^4 cells per well) overnight in the incubator (5% CO2, 37 °C). […] Following treatment, cells were washed with warm 1xPBS and incubated with JC-10 dye (2.5 μM in warm PBS) at 5% CO2, 37 °C for 20 minutes. Cells were then washed with 1xPBS and observed using an Olympus IX50 inverted fluorescence microscope. Images were captured and analyzed using ImageJ software. The ratio of fluorescence emissions at 525 and 590 nm was used for quantification analysis.

[10] = tested on: mitochondrial membrane potential (ΔΨm) in HeLa cells; experiment: Mitochondrial membrane potential (ΔΨm) JC-10 analysis, HeLa; conditions: IC50 concentration, 48 h
Experimental: as §6, §7

[11] = tested on: cytochrome c in HCT-116 cells; experiment: Cytochrome c localization by immunofluorescence, HCT-116; conditions: IC50 concentration, 48 h
Experimental: After 48 hours of treatment, immunofluorescence analysis of cytochrome c distribution and expression in treated cells was performed using glass coverslips.[10] Following the treatment, cells were washed with PBS, fixed in 4% formaldehyde for 20 min, and permeabilized with 0.2% Tween-20. Blocking was performed using a buffer containing 0.1% Tween-20 and 10% FBS for 30 min. The cells were then incubated for 1 hour at room temperature with a monoclonal mouse anti-human cytochrome c antibody (1:100, G7421, Promega, USA,)
Subsequently, the cells were incubated for 30 minutes with a goat anti-mouse FITC (1:200, diluted in blocking buffer), washed, and images were acquired using an inverted fluorescence microscope (Olympus IX50). Image analysis was performed using ImageJ software.

HCT-116 cells [12] = experiment: Cell cycle analysis (PI, flow cytometry), HCT-116; conditions: IC50 concentration, 48 h; control 27.4%
Experimental: (§8) After treatment of HCT-116 and HeLa cells with enones, cells were harvested, washed with PBS, and fixed in 70% ice-cold ethanol at +4 °C overnight.[10] The cells were then pelleted, resuspended in 1 ml PBS containing RNAse A (12091021, Sigma Aldrich), and incubated for 30 min at 37 °C. A staining solution containing propidium iodide (1 mg PI per ml PBS) (B7758, Biotrend) was added to cells, followed by 15 min incubation in the dark. Cells were analyzed by flow cytometer Cytomics FC500. DNA content was determined using Flowing Software and cell cycle distribution was presented by graph (histograms).

HeLa cells [13] = experiment: Cell cycle analysis (PI, flow cytometry), HeLa; conditions: IC50 concentration, 48 h; control 29.9%
Experimental: as §8

[14] = Homo sapiens, MRC5, MRC-5, 48 h
[15] = Homo sapiens, MRC5, MRC-5, 72 h

Structure (SMILES) | total percentage of apoptotic HeLa cells (HeLa cells [3]) [%] | Selectivity index (SI) (HeLa cells [1]; 48 h) | Cytotoxicity range (HeLa cells [1]; 48 h) | Cytotoxicity range (HeLa cells [1]; 72 h) | IC50 (HeLa cells [1]; Homo sapiens, 48 h) [µM] | IC50 (HeLa cells [1]; Homo sapiens, 72 h) [µM] | percentage of cytotoxic HCT-116 cells compared to HeLa cells (fold) (HCT-116 cells [2]) | percentage of cytotoxic HCT-116 cells compared to control MRC-5 cells (fold) (HCT-116 cells [2]) | Cytotoxicity range (HCT-116 cells [2]; HCT-116, 48 h) | Selectivity index (SI) (HCT-116 cells [2]; HCT-116, 48 h) | Cytotoxicity range (HCT-116 cells [2]; HCT-116, 72 h) | Selectivity index (SI) (HCT-116 cells [2]; HCT-116, 72 h) | IC50 (HCT-116 cells [2]; Homo sapiens, HCT-116, 48 h) [µM] | IC50 (HCT-116 cells [2]; Homo sapiens, HCT-116, 72 h) [µM] | IC50 (MRC-5 cells; [14]) [µM] | IC50 (MRC-5 cells; [15]) [µM] | increase of percentage of apoptotic HCT-116 cells compared to control HCT-116 cells (HCT-116 cells [4]) [fold] | percentage of total apoptotic HCT-116 cells (sum of early and late) (HCT-116 cells [4]) [%] | Bax/Bcl-2 ratio [5] | Bax/Bcl-2 ratio [6] | also measured
N.N.[Cl][Pt][Cl] [CP, Cisplatin, reference compound] | 42.38 |  |  |  |  |  |  |  |  |  |  |  |  |  |  |  |  |  |  |  | IC50 (HeLa cells [1]; 48 h): 16.5 µM; IC50 (HeLa cells [1]; 72 h): 3.62 ± 0.09 µM; IC50 (HCT-116 cells [2]; HCT-116, 48 h): 13.6 µM; IC50 (HCT-116 cells [2]; HCT-116, 72 h): 7.08 ± 0.13 µM; IC50 (MRC-5 cells; MRC-5, 48 h): > 30 µM; IC50 (MRC-5 cells; MRC-5, 72 h): > 85 µM
COc1cc(/C=C/C(C)=O)ccc1OCC(=O)O [E1, (E)-2-(2-Methoxy-4-(3-oxobut-1-en-1-yl)phenoxy)acetic acid] | 43.03 | 8.67 | 3.12–39.24% | 39.35–61% | 17.3 ± 1.19 | 3.59 ± 0.03 | 1.8–3.6 fold | 4.1–4.4 fold | 11.23–72.91% | 24.75 | 65.85–73.44% | 58.03 | 6.06 ± 0.96 | 1.12 ± 0.01 | > 150 | > 65 | 8.5 | 59.5 | 1.8 | 1.1 | Bcl-2 protein expression vs control cells [6]: decreased; MFI of active caspase-3 in HCT-116 (fold change) [7]: 2.1 fold change; MFI of active caspase-3 in HeLa (fold change) [8]: 1.9 fold change; JC10-green/JC10 red ratio in HCT-116 cells [9]: 1.6; JC10-green/JC10 red ratio in HeLa cells [10]: 1.4; RELATIVE RATIO OF CYTOSOL CYTC TO MITOCHONDRIAL CYT C IN HCT-116 CELLS [11]: 1.2; % OF HCT-116 CELLS, G2/M (HCT-116 cells [12]): 50.4%; % OF HELA CELLS, G2/M (HeLa cells [13]): 66.9%
COc1cc(/C=C/C(=O)C(C)C)ccc1OCC(=O)O [E2, (E)-2-(2-Methoxy-4-(4-methyl-3-oxopent-1-en-1-yl)phenoxy)acetic acid] | 54.02 | 14.96 | 4.74–51.94% | 32.98–71.66% | 13.4 ± 1.43 | 3.43 ± 0.09 | 1.3–2.3 fold | 2.9–5.2 fold | 10.87–71.88% | 39.22 | 65.23–72.73% | 100.63 | 5.1 ± 0.92 | 0.9 ± 0.02 | > 200 | > 90 | 8.8 | 61.6 | 1.9 | 1.4 | Selectivity index (SI) (HeLa cells [1]; 72 h): 26.23; Bcl-2 protein expression vs control cells [6]: decreased; MFI of active caspase-3 in HCT-116 (fold change) [7]: 2.4 fold change; MFI of active caspase-3 in HeLa (fold change) [8]: 2 fold change; JC10-green/JC10 red ratio in HCT-116 cells [9]: 2.15; JC10-green/JC10 red ratio in HeLa cells [10]: 1.9; RELATIVE RATIO OF CYTOSOL CYTC TO MITOCHONDRIAL CYT C IN HCT-116 CELLS [11]: 1.5; % OF HCT-116 CELLS, G2/M (HCT-116 cells [12]): 56.1%; % OF HELA CELLS, G2/M (HeLa cells [13]): 66%
COc1cc(/C=C/C(=O)CC(C)C)ccc1OCC(=O)O [E3, (E)-2-(2-Methoxy-4-(5-methyl-3-oxohex-1-en-1-yl)phenoxy)acetic acid] | 35.63 | 5.50 | 5.47–33.95% | 40.39–59.92% | 18.2 ± 1.33 | 3.96 ± 0.1 | 2.05–2.1 fold | 4.4–6.9 fold | 11.23–75.08% | 14.71 | 66.85–70.44% | 42.68 | 6.8 ± 1.01 | 1.64 ± 0.01 | > 100 | > 70 | 7.4 | 51.68 | 1.6 | 0.9 | Selectivity index (SI) (HeLa cells [1]; 72 h): 17.67; JC10-green/JC10 red ratio in HCT-116 cells [9]: 1.4; JC10-green/JC10 red ratio in HeLa cells [10]: 1.3; RELATIVE RATIO OF CYTOSOL CYTC TO MITOCHONDRIAL CYT C IN HCT-116 CELLS [11]: 1.1; % OF HCT-116 CELLS, G2/M (HCT-116 cells [12]): 54.1%; % OF HELA CELLS, G2/M (HeLa cells [13]): 58.3%
